Results from US20060258597A1, “Antitumorigenic drug combination and dosing schedule” (priority 2005, published 2006).
[ ]: non-standard residue; d: D form. d(aIle) = CC[C@H](C)[C@@H](N)C(=O)O; Nva = CCC[C@H](N)C(=O)O; Sar = CNCC(=O)O

System: HT-1080 cells
Assay: HT-1080 tumor growth inhibition in SCID mice (subcutaneous flank xenograft)
Assay type: in vivo
Details: peptide 120 Mpk BID SC and/or bevacizumab 3.0 Mpk twice per week SC; for % T/C: size of tumor treated/control
Method: Female SCID mice (Charles River Laboratories, Wilmington, Mass., USA) with an average body weight of 18.7 g were inoculated subcutaneously into the right flank with 0.1 mL of about 0.5×10^6 HT-1080 cells (1:1 matrigel) on a Friday. Day 3, post inoculation (Monday), the mice were ear tagged and randomized into groups of ten control and treated groups. The representative prodrug of a peptidomimetic of the second of the three Type-1 repeats of TSP-1, N-Ac-Sar-Gly-Val-D-alloIle-Thr-Nva-Ile-Arg-Pro-NHCH2CH3 (120 mpk), was administered twice per day (BID) during the dosing regimen, and the representative […] bevacizumab (3 mpk) was administrated each Monday and Wednesday during the same dosing regimen. Tumors were measured with calipers every Monday, Wednesday and Friday days beginning at day 3, post inoculation. Tumor volumes were calculated according to the formula V=L×W^2/2, wherein V is volume (mm^3), L is length and W is width. Antitumorigenesis was measured by percent tumor growth inhibition (TGI).
The term “mpk,” as used herein, means milligrams drug per kilogram mammal.
The term “SE,” as used herein, means standard error.
The term “T/C,” as used herein, means size of tumor (treated/control).
The term “SC,” as used herein, means subcutaneously.
The term “p-value,” as used herein, means confidence level of comparison to control.
Controls comprised vehicle only. Vehicles for N-Ac-Sar-Gly-Val-D-alloIle-Thr-Nva-Ile-Arg-Pro-NHCH2CH3 and bevacizumab were D5W (5% glucose in water) and isotonic saline (0.9% NaCl in water), respectively.

Row | Substance | % TGI (percent tumor growth inhibition) (Day 7) [%] | % T/C (Day 7) [%] | % TGI (percent tumor growth inhibition) (Day 10) [%] | % T/C (Day 10) [%] | % TGI (percent tumor growth inhibition) (Day 12) [%] | % T/C (Day 12) [%] | % TGI (percent tumor growth inhibition) (Day 14) [%] | % T/C (Day 14) [%]
1 | Ac-[Sar]GV[d(aIle)]T[Nva]IRP-NHEt | 30.24 | 69.76 | 41.61 | 58.39 | 44.30 | 55.70 | 48.79 | 51.21
2 | bevacizumab | 33.68 | 66.32 | 39.40 | 60.60 | 39.25 | 60.75 | 58.30 | 41.70
